Common to all, as to type: functional, cell-based
The subject of one assay is HL-60. Description: Antiproliferative activity against human HL60 cells after 72 hrs by CCK8 assay. As to conditions: HL-60, 72 h.
The test system of another assay is A549. Description: Antiproliferative activity against human A549 cells after 72 hrs by sulforhodamine B assay. As to conditions: A549, 72 h. Background: The SRB assay estimates cell density from bound dye.
The subject of a further assay is SGC-7901. Description: Antiproliferative activity against human SGC7901 cells after 72 hrs by sulforhodamine B assay. As to conditions: SGC-7901, 72 h.

SMILES strings stand for the structures. Some results are limits rather than exact numbers.

As usually defined, the IC50 is the concentration needed to halve the response being measured.

In the case of `Cc1ccc2cc(C(C)C)c(O)cc2c1CC[C@@H]1OC(C)(C)OC1(C)C`, the IC50 was 45.5 µM in the assay with HL-60, 26.2 µM in the assay with A549 and 31.7 µM in the assay with SGC-7901.
Consider `CC(=O)Oc1cc2c(CC[C@@H](O)C(C)(C)O)c(C)ccc2cc1C(C)C`, for which the IC50 in the assay on HL-60 came to 41.2 µM; with A549 it was 48.6 µM; in the assay with SGC-7901 it was 47.5 µM.
For `Cc1ccc(/C=C(\C(=O)O)C(C)C)c2c1CC[C@@H](C(C)(C)O)OC2=O`, in that order: over 100 µM, over 100 µM and over 100 µM.
For `CC(=O)Oc1cc2c(CC[C@H]3OC(C)(C)OC3(C)C)c(C)ccc2cc1C(C)C`, in that order: 17.2 µM, 28.9 µM and 36.7 µM.
On to `CC(=O)Oc1cc2c(CC[C@H](O)C(C)(C)O)c(C)ccc2cc1C(C)C`, for which the half-inhibitory concentration (IC50) with HL-60 turned out to be 21.7 µM; in the assay on A549 it was 50.5 µM; in the assay on SGC-7901, 45.8 µM.
In the same order, the values of `Cc1ccc(/C=C(\C(=O)O)C(C)C)c2c1CC[C@H](C(C)(C)O)OC2=O` are over 100 µM, over 100 µM and over 100 µM.
Turning to `CC(=O)Oc1cc2c(CC[C@@H]3OC(C)(C)OC3(C)C)c(C)ccc2cc1C(C)C`, the results for the IC50 in the assay with HL-60, in the assay on A549 and with SGC-7901 were 16 µM, 68.5 µM and 88.9 µM, respectively.
In the same order, the values of `CC(=O)Oc1cc2c(CCC=C(C)C)c(C)ccc2cc1C(C)C` are 20.8 µM, 25.5 µM and 34.4 µM.
In the same order, the values of `Cc1ccc2cc(C(C)C)c(O)cc2c1CC[C@H]1OC(C)(C)OC1(C)C` are 49.4 µM, 23.5 µM and 33.1 µM.
In the same order, the values of `CC(=O)Oc1cc2c(cc1C(C)C)C(=O)C=C1C(C)(C)CCCC12C` (single isomer, unassigned) are 25.7 µM, 26.9 µM and 22.9 µM.
For `COc1cc2c(cc1C(C)C)C(=O)C=C1C(C)(C)CCCC12C` (single isomer, unassigned), the half-maximal inhibitory concentration (IC50) in the assay on HL-60, with A549 and in the assay on SGC-7901 was over 100 µM in each case.

Values taken from ChEMBL document CHEMBL4382251, “A Pair of Enantiomeric Bis- seco-abietane Diterpenoids from Cryptomeria fortunei” (J Nat Prod, 2018).
